Earlier results on two molecules are cited in PMC9587990, “Molecular basis for isoform-selective inhibition of presenilin-1 by MRK-560” (Nature Communications, 2022).

The test system of this series is PS1-complex over PS2. The following applies: cited from earlier work.

SMILES strings stand for the structures.

Turning to `C[C@H](c1ccc(F)cc1CCCC(=O)O)N(c1cc(F)ccc1F)S(=O)(=O)c1ccc(Cl)cc1` [BMS299897], the reported isoform selectivity result was “PS1 selectivity”. Regarding `O=C1NCCCCC1N(Cc1ccc(Br)cc1)S(=O)(=O)c1ccc(Cl)cc1` (centres unmarked) [ELN318463], the reported isoform selectivity result is recorded as “PS1 selectivity”.
